Consider 30 compounds from ChEMBL document CHEMBL1142701, “CHMIS-C: a comprehensive herbal medicine information system for cancer” (2005).

The term GI50 denotes the concentration at which growth is held to half of that of the control. Lower therefore signals greater sensitivity of the cells.

The subject of this experiment is Panel NCI-60 (60 carcinoma cell lines). The experiment is described as follows: Growth inhibitory activity against human cancer cell line in the NCI's anticancer drug screening program. The experiment is classed as functional.
Compound `COc1ccc2c(c[n+](C)c3c4cc5c(cc4ccc23)OCO5)c1OC` [CHELERYTHRINE CHLORIDE] yielded a GI50 of 188 nM.

In turn, `COc1cc([C@@H]2c3cc4c(cc3[C@H](O)[C@H]3COC(=O)[C@H]23)OCO4)cc(OC)c1OC` [PODOFILOX] returned a GI50 of 10 nM.

For the compound `CC(=O)O[C@H]1C(=O)[C@@]2(C)[C@H]([C@H](OC(=O)c3ccccc3)[C@]3(O)C[C@H](OC(=O)[C@H](O)[C@@H](NC(=O)c4ccccc4)c4ccccc4)C(C)=C1C3(C)C)[C@]1(OC(C)=O)CO[C@@H]1C[C@@H]2O` [PACLITAXEL], the GI50 is 0.1 nM.

As for `O=C1N[C@@H]2C(=C[C@H](O)[C@@H](O)[C@H]2O)c2cc3c(c(O)c21)OCO3` [NARCICLASINE], the GI50 worked out at 45 nM.

With `C=C(CC[C@@H](C(=O)O)[C@H]1CC[C@@]2(C)C3=C(CC[C@]12C)[C@@]1(C)CC[C@H](O)C(C)(C)[C@@H]1CC3)C(C)C` [EBURICOIC ACID], the GI50 worked out at 10000 nM.

Compound `CC(C)c1oc(=O)cc2c1C(O)C1OC(=O)C3(C)C(O)C4OC4C2(C)C13` (stereo not given) [NAGILACTONE] came in with a GI50 of 363 nM.

Compound `CC(=O)OC(C)(C)/C=C/C(=O)C(C)(O)C1C(O)CC2(C)C3CC=C4C(C[C@@H](O)C(=O)C4(C)C)C3(C)C(=O)CC12C` (stereo not given in full) [AMARIN] displayed a GI50 of 10 nM.

Turning to `CC(C=CC=C(C)/C=C/C1=C(C)CCCC1(C)C)=CCO` [RETINOL], growth was halved (GI50) at 28 nM.

Turning to `CC(C)(O)/C=C/C(=O)[C@](C)(O)[C@@H]1C2CC(=O)[C@@]3(C)[C@@H]4C[C@H](O)C(=O)C(C)(C)C4=CC[C@H]3[C@]2(C)C[C@H]1O` (stereo not given in full) [ELATERICIN], the GI50 is 23 nM.

The compound `C=C1C(=O)[C@]23[C@H](O)[C@H]1CC[C@H]2[C@@]12CO[C@]3(O)[C@@H](O)[C@@H]1C(C)(C)CC[C@@H]2O` [ORIDONIN] registered a GI50 of 453 nM.

`CC[C@@]1(O)C(=O)OCc2c1cc1n(c2=O)Cc2cc3ccccc3nc2-1` [CAMPTOTHECIN] displayed a GI50 of 10 nM.

As for `CCCCCCCC/C=C\CCCCCCCC(=O)O` [OLEIC ACID], the GI50 amounted to 10000 nM.

In turn, `CO[C@H]1C[C@H](O[C@H]2CC[C@]3(C=O)[C@H]4CC[C@]5(C)[C@@H](C6=CC(=O)OC6)CC[C@]5(O)[C@@H]4CC[C@]3(O)C2)O[C@H](C)[C@H]1O` [CYMARIN] had a GI50 of 39 nM.

Take `COc1ccc2cc1Oc1ccc(cc1)C[C@@H]1c3cc(c(OC)cc3CCN1C)Oc1c(OC)c(OC)cc3c1[C@H](C2)N(C)CC3` [ISOTETRANDRINE]: the GI50 came to 10 nM.

In the case of `COc1ccc2c(c1O)-c1c(OC)c(OC)cc3c1C(C2)[N+](C)(C)CC3` (stereo not given) [MENISPERINE], the GI50 was 41 nM.

Consider `COC(=O)C[C@](O)(CCCC(C)(C)O)C(=O)O[C@@H]1C(OC)=C[C@]23CCCN2CCc2cc4c(cc2[C@H]13)OCO4` [OMACETAXINE MEPESUCCINATE], for which the GI50 is 4.4 nM.

As for `COc1cccc2c1cc([N+](=O)[O-])c1c(C(=O)O)cc3c(c12)OCO3` [ARISTOLOCHIC ACID], the 50% growth inhibitory concentration (GI50) worked out at 883 nM.

Take `COC(=O)C(O)C(O)(CCC(C)C)C(=O)OC1C(OC)=CC23CCCN2CCc2cc4c(cc2C13)OCO4` (stereo not given) [OHARRINGTONINE]: it took 10 nM to inhibit growth by half (GI50).

`Cc1cc(O)c2c(c1)C(=O)c1cc(O)cc(O)c1C2=O` [EMODIN] registered a GI50 of 10000 nM.

For the compound `COc1ccc2cc1Oc1ccc(cc1)C[C@H]1c3cc(c(OC)cc3CCN1C)Oc1c(OC)c(OC)cc3c1[C@H](C2)N(C)CC3` [FANCHININ], the GI50 was 10 nM.

In turn, `O=c1cc(-c2ccc(O)cc2)oc2cc(O[C@@H]3O[C@H](CO)[C@@H](O)[C@H](O)[C@H]3O)cc(O)c12` [APIGETRIN] had a GI50 of 76 nM.

`O=c1oc2c(O)c(O)cc3c(=O)oc4c(O)c(O)cc1c4c23` [ELLAGIC ACID] registered a GI50 of 10 nM.

`COc1cc2c[n+](C)c3c4cc5c(cc4ccc3c2cc1OC)OCO5` [NITIDINE CHLORIDE] returned a GI50 of 125 nM.

In turn, `C[C@]12CC[C@H]3[C@@H](CC[C@@]4(O)C[C@@H](O)CC[C@]34C=O)[C@]1(O)CC[C@@H]2C1=CC(=O)OC1` registered a GI50 of 94 nM.

As for `COC(=O)CC(O)(CCC(C)(C)O)C(=O)OC1C(OC)=CC23CCCN2CCc2cc4c(cc2C13)OCO4` (stereo not given), halving of growth (GI50) required 10 nM.

As for `COc1cc2c(c(OC)c1OC)-c1ccc(OC)c(=O)cc1[C@@H](NC(C)=O)CC2` [COLCHICINE], the GI50 came to 1.7 nM.

The compound `C[C@H]1[C@H](C)CC[C@]2(C(=O)O)CC[C@]3(C)C(=CCC4[C@@]5(C)CC[C@H](O)C(C)(C)C5CC[C@]43C)[C@H]12` (stereo not given in full) returned a GI50 of 10 nM.

Regarding `CN1Cc2c(ccc3c2OCO3)C2C(O)Cc3cc4c(cc3C21)OCO4` (stereo not drawn) [CHELIDONINE (+)], the GI50 worked out at 433 nM.

Regarding `c1c2c(cc3c1OCO3)-c1cc3ccc4c(c3c[n+]1CC2)OCO4` [COPTISINE], the GI50 came out at 260 nM.

`COc1c2cc3c(c1OC)CCN(C)[C@@H]3Cc1ccc(cc1)Oc1cc3c(c(OC)c1OC)CCN(C)[C@@H]3Cc1ccc(cc1)O2` [CYCLEANINE] showed a GI50 of 17 nM.
